In patent US20240156982A1, “METHOD OF FORMING PEPTIDE-COATED NANOPARTICLES” (Research Foundation of the City University of New York, priority 2022, published 2024) one finds IC50 and solubility in water data, which are given here for one molecule.

In one data set the test system is CP70. Put plainly: MTT viability assay. Format: cell-based. Here is the method: (§1) FIG. 8 depicts a series of graphs showing in vitro viability with RGDFFF (SEQ ID NO: 1)-CA4 NP. Each column represents the mean and standard deviation of N=3 and p<0.005 (HUVEC, OVCAR-3), p<0.04 (TOV-21G, OV-90), p<0.03 (CP70), p<0.02 (A2780), p<0.01 (ES-2), p<0.12 (SKOV-3).
(§2) The biological activity of RGDFFF (SEQ ID NO: 1)-CA4 NPs in cell culture was also evaluated. As determined by HPLC, the CA4 drug payload in the NP was 0.2 wt. %. First, IC50 values were established for the NPs in all cells and subsequently performed MTT viability assays in HUVEC and OvCA cells using the respective IC50 values. The RGDFFF-CA4 NPs were compared to cells only without treatment, free CA4, and empty RGDFFF (SEQ ID NO: 1)-NPs without CA4, as shown in FIG. 8. […] Optical microscopy was used to examine the morphological changes in the cells after incubation with RGDFFF (SEQ ID NO: 1)-CA4 NP. This was done since CA4 is a microtubule depolymerizing agent that disrupts internal cell architecture.
A general note: Tetrazolium assays rely on reduction of a dye to a coloured formazan, in cell work by metabolically active cells.

The next data set concerns TOV-21G. The data set can be described thus: MTT viability assay. Format: cell-based. The method, then:
as §1, §2

Another data set relates to ES-2. The data set can be described thus: MTT viability assay. Format: cell-based. Here is the method:
as §1, §2

Another data set relates to OV-90. The data set can be described thus: MTT viability assay. Format: cell-based. Here is the method: as §1, §2
In the next data set the test system is OVCAR-3. Put plainly: MTT viability assay. Format: cell-based. Here is the method:
as §1, §2

In another data set the test system is SKOV-3. The data set can be described thus: MTT viability assay. Format: cell-based. Here is the method:
as §1, §2

The next data set relates to A2780. Put plainly: MTT viability assay. Format: cell-based. Here is the method:
as §1, §2

The conditions of data set [1]: cited from earlier work.
The subject of the next data set is HUVEC. The data set can be described thus: MTT viability assay. Format: cell-based, human. Here is the method: as §1, §2

Consider `COc1ccc(/C=C\c2cc(OC)c(OC)c(OC)c2)cc1O` [CA4, combretastatin A4], for which the IC50 was 4 nM in the data set with CP70; 25 nM in the data set on TOV-21G; 5 nM in the data set with ES-2; 100 nM with OV-90; 2.5 nM in the data set with OVCAR-3; 10 nM in the data set with SKOV-3. Besides, the IC50 with A2780 came to 5 nM; in the data set on HUVEC, 2 nM. Besides, the solubility in water entry in data set [1] is listed as “not soluble in water”.

A word on the IC50: it is the midpoint of a concentration-inhibition curve. Read a low IC50 as greater potency in that assay.
